For assay [1], the target named is Serine/threonine-protein kinase 16 (Homo sapiens, UniProt O75716). As to the kind of experiment: Selectivity interaction (KinomeScan (DiscoverX)) EUB0000702a STK16. Conditions: at 1 µM.
Assay [2] concerns the target Dual specificity protein kinase CLK4 (Homo sapiens) (UniProt Q9HAZ1). Description: Selectivity interaction (KinomeScan (DiscoverX)) EUB0000702a CLK4. Conditions: at 1 µM.
The target in assay [3] is Mitogen-activated protein kinase kinase kinase 1 (Homo sapiens) (UniProt Q13233). Description: Selectivity interaction (KinomeScan (DiscoverX)) EUB0000702a MAP3K1. Conditions: at 1 µM.
The target of another assay is Aurora kinase B (Homo sapiens, UniProt Q96GD4). As to the kind of experiment: Selectivity interaction (KinomeScan (DiscoverX)) EUB0000178b AURKB. Conditions: at 1 µM.
Chain of Aurora kinase B (Q96GD4 whole entry): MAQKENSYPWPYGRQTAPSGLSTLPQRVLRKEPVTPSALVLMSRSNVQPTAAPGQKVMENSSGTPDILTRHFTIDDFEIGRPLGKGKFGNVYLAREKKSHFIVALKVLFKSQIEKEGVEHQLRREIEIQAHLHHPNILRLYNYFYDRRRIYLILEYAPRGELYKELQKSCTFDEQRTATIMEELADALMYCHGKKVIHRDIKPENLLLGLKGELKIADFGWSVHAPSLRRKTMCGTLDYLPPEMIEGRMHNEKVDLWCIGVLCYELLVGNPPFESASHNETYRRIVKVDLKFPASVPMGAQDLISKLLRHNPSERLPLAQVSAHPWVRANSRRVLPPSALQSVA
Assay [4] relates to T1, Receptor-type tyrosine-protein kinase FLT3 (Homo sapiens), P36888 [N841I].
T1 sequence (whole entry): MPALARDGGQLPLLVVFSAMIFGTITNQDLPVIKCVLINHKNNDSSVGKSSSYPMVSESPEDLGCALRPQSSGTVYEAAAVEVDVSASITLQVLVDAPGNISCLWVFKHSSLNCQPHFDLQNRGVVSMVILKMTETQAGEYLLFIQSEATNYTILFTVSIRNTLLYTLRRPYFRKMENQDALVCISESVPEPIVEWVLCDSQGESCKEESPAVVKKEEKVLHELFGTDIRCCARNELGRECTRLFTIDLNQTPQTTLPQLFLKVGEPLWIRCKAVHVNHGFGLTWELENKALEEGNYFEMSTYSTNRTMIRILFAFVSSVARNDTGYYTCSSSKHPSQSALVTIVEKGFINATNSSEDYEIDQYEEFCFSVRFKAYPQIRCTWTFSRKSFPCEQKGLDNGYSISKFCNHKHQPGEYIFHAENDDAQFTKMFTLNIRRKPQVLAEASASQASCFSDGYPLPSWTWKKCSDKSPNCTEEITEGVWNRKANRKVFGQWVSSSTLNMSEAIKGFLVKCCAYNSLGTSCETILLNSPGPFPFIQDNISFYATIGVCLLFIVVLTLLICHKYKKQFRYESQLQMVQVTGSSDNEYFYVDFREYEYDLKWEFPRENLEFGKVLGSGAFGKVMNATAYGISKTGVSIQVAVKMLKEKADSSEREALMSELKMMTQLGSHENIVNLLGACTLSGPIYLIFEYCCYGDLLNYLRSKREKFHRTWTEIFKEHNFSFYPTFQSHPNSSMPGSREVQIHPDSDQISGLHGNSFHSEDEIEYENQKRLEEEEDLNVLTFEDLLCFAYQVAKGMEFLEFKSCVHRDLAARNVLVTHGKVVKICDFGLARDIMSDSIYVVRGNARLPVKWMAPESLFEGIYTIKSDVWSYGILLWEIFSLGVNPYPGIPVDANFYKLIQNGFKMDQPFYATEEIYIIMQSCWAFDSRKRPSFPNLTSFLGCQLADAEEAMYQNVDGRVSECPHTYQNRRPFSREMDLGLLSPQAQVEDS
As to the kind of experiment: (§1) Selectivity interaction (KinomeScan (DiscoverX)) EUB0000138c FLT3. Conditions: at 100 nM.

Assay [5] concerns Receptor-type tyrosine-protein kinase FLT3 (Homo sapiens), P36888 [D835H]. Described as §1. Conditions: at 100 nM.
The subject of assay [6] is Receptor-type tyrosine-protein kinase FLT3 (Homo sapiens), P36888 [UNDEFINED MUTATION]. The assay is described as §1. Conditions: at 100 nM.
Assay [7] concerns the target Tyrosine-protein kinase JAK2 (Homo sapiens, UniProt O60674). As to the kind of experiment: Selectivity interaction (KinomeScan (DiscoverX)) EUB0000138c JAK2. Conditions: at 100 nM.
Assay [8] addresses Tyrosine-protein kinase ABL1 (Homo sapiens, UniProt P00519). Conditions: at 1 µM.
Assay [9] addresses Mast/stem cell growth factor receptor Kit (Homo sapiens, UniProt P10721). Conditions: at 1 µM.
The target in assay [10] is Tyrosine-protein kinase SYK (Homo sapiens, UniProt P43405). As to the kind of experiment: Selectivity interaction (KinomeScan (DiscoverX)) EUB0000305b SYK. Conditions: CellTiter-Glo assay (Promega, proliferation in ACHN cells): IC50 = […] nM, https://www.sgc-ffm.uni-frankfurt.de/#!specificprobeove, at 100 nM.
The target in assay [11] is T2, Serine/threonine-protein kinase TAO3 (Homo sapiens) (UniProt Q9H2K8).
T2 sequence (whole entry): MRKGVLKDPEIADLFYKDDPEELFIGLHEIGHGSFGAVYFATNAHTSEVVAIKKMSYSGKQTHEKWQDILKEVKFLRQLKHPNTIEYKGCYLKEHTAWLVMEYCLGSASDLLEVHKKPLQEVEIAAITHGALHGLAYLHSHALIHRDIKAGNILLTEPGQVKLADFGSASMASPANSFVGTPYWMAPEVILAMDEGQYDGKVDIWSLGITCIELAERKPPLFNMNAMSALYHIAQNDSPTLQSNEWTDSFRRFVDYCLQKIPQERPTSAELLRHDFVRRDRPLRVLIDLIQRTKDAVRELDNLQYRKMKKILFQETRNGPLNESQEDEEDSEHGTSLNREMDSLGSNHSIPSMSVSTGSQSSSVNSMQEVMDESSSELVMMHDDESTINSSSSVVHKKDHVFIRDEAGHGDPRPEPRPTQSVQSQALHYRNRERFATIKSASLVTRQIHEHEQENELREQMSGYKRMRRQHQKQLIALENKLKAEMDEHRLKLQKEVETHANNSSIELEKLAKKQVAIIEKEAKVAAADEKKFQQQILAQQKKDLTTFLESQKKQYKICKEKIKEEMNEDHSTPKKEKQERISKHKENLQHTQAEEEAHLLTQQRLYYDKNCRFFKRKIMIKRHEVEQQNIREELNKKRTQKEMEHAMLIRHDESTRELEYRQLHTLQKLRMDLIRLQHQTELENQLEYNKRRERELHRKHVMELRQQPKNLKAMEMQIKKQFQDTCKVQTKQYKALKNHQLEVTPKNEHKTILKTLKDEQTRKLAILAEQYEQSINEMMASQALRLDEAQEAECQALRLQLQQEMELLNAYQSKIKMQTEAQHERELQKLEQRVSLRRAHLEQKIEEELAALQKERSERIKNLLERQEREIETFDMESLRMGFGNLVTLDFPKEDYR
As to the kind of experiment: Selectivity interaction (KinomeScan (DiscoverX)) EUB0000305b TAOK3. Conditions: CellTiter-Glo assay (Promega, proliferation in ACHN cells): IC50 = […] nM, https://www.sgc-ffm.uni-frankfurt.de/#!specificprobeove, at 100 nM.

Assay [12] has as its target Ribosomal protein S6 kinase alpha-5 (Homo sapiens) (UniProt O75582). As to the kind of experiment: Selectivity interaction (Kinase panel (University of Dundee)) EUB0000169b RPS6KA5. Conditions: at 10 µM.
Assay [13] addresses 5'-AMP-activated protein kinase catalytic subunit alpha-1 (Homo sapiens, UniProt Q13131). Description: Selectivity interaction (Kinase panel (University of Dundee)) EUB0000169b PRKAA1. Conditions: at 10 µM.

Experimental findings from ChEMBL document CHEMBL5212743, “Selectivity Literature for EUbOPEN Chemogenomics Library wave 3” (2023) are described below.

Bounds are passed on as bounds.

Chain of Tyrosine-protein kinase JAK2 (O60674 whole entry): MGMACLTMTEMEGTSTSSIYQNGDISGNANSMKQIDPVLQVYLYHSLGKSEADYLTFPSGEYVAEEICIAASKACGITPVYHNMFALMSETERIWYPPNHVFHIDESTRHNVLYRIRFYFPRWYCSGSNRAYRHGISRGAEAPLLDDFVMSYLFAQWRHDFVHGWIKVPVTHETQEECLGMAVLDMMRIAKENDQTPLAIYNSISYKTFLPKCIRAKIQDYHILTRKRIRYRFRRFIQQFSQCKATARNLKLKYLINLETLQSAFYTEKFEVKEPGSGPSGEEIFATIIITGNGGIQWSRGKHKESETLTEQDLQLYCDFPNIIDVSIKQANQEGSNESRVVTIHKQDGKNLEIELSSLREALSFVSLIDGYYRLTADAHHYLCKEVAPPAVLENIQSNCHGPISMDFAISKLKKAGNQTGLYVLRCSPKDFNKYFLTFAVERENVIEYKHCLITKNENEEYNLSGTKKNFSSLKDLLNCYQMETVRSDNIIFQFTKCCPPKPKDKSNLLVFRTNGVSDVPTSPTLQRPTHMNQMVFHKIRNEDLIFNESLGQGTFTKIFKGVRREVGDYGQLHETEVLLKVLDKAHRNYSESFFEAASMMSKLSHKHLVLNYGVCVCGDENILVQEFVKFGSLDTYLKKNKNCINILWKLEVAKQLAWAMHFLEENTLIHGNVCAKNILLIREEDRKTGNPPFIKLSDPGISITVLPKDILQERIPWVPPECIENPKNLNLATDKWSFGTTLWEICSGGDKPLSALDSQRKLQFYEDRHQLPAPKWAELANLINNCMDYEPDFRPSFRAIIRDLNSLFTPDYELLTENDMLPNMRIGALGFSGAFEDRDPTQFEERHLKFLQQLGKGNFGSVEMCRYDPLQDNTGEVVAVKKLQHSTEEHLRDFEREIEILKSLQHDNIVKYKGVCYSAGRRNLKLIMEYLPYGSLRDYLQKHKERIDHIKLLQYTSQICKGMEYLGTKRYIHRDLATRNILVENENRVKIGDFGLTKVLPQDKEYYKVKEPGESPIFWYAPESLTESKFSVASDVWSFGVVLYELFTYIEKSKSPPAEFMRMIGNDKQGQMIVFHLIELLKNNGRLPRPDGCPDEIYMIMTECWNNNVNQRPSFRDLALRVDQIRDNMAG
Chain of 5'-AMP-activated protein kinase catalytic subunit alpha-1 (Q13131 whole entry, looked up): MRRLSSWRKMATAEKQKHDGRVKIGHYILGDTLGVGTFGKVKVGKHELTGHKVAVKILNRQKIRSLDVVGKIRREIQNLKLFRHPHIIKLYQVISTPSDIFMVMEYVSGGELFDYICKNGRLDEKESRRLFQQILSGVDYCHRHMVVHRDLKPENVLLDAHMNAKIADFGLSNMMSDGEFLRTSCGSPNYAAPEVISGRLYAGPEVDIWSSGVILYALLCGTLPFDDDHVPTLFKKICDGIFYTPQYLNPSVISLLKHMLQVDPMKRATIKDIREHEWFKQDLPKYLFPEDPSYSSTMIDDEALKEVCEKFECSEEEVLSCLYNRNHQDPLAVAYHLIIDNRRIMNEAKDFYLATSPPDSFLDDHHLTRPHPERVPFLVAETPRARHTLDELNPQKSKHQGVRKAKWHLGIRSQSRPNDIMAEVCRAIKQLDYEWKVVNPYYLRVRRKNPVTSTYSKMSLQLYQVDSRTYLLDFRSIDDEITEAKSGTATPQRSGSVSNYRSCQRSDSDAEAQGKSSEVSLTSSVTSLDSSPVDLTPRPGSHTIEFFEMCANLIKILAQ
Chain of Mast/stem cell growth factor receptor Kit (P10721 whole entry): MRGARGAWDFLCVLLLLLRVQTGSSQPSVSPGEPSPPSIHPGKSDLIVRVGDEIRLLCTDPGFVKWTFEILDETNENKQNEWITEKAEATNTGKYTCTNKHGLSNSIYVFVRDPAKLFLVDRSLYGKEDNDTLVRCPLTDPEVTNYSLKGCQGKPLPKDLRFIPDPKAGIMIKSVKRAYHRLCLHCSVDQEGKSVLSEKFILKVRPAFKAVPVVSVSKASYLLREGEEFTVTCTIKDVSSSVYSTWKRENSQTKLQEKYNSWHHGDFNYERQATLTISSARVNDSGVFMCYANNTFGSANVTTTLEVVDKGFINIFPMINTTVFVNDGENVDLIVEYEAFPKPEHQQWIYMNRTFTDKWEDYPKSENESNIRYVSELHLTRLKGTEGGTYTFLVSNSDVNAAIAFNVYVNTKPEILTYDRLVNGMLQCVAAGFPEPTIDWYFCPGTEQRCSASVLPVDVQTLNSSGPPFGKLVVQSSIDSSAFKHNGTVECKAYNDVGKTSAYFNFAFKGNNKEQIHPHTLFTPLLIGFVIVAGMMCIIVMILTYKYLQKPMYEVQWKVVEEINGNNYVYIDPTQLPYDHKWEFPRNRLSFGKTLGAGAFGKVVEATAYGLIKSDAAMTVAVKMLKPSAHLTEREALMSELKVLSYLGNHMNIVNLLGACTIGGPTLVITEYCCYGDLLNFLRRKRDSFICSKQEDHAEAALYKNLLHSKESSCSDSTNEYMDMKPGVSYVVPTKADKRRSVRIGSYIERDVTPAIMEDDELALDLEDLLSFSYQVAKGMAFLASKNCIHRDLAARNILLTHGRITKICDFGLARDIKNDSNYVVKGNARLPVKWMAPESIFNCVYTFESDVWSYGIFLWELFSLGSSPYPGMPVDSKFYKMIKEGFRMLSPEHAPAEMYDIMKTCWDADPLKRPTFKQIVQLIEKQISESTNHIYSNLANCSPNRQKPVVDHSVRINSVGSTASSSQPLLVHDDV
Chain of Tyrosine-protein kinase ABL1 (P00519 whole entry): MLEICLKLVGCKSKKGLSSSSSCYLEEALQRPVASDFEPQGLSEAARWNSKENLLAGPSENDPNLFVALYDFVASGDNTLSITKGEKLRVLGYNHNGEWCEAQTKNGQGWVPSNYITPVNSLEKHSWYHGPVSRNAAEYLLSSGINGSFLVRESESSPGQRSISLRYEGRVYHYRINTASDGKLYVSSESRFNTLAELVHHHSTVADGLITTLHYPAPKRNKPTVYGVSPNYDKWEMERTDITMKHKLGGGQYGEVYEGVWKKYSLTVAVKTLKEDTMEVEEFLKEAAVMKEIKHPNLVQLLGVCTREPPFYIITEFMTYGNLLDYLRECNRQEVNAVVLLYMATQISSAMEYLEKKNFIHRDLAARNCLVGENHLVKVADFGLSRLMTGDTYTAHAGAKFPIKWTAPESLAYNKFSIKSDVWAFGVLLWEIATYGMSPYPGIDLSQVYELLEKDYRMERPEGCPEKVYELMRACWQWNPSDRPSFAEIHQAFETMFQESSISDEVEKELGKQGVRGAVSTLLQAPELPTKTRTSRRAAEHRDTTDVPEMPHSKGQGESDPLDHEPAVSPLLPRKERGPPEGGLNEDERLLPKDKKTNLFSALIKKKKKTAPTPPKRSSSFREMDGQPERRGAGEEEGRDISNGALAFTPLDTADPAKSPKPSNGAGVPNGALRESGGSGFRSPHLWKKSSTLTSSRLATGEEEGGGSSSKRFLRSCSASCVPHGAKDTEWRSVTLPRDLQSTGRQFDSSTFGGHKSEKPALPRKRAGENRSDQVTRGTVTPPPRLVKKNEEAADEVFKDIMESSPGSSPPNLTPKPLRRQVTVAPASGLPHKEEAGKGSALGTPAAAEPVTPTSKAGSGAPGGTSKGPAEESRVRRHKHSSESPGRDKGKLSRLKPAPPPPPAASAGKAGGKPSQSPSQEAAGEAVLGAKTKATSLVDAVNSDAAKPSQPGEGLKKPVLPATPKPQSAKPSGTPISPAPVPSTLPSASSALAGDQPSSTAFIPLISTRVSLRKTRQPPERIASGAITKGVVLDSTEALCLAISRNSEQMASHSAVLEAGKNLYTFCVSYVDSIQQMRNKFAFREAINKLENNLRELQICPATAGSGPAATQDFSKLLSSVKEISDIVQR
Chain of Dual specificity protein kinase CLK4 (Homo sapiens) (Q9HAZ1 whole entry, looked up): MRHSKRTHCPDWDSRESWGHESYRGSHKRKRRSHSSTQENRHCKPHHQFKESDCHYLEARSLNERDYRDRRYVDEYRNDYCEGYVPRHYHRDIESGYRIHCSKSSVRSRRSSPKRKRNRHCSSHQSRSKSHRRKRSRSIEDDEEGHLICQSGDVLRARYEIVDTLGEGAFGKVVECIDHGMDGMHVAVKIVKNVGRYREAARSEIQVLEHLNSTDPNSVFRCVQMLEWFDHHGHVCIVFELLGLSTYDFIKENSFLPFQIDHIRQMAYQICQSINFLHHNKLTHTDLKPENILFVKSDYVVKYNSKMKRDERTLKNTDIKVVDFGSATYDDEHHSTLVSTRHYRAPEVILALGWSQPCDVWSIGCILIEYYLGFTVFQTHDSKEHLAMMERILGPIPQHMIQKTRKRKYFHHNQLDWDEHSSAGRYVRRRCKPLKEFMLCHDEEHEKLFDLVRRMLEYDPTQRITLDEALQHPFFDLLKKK
Chain of Serine/threonine-protein kinase 16 (O75716 whole entry): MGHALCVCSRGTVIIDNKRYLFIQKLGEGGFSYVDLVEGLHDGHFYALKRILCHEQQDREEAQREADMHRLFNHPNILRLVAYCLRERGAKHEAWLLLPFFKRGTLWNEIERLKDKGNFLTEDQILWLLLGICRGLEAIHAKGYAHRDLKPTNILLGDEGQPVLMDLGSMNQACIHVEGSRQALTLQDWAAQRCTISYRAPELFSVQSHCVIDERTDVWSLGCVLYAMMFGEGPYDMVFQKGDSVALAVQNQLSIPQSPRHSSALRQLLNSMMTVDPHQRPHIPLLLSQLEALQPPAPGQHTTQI

Turning to `CN(c1ccnc(CNc2nc(Nc3ccc4c(c3)CC(=O)N4)ncc2C(F)(F)F)n1)S(C)(=O)=O` [PF-00911705], the % of control in [1] turned out to be 1.5%; in [2], 1.4%; in assay [3], 0%.

With `CN1C(=O)c2sccc2N(C)c2nc(Nc3ccc(S(N)(=O)=O)cc3)ncc21`, the % of control on Aurora kinase B came to 3.4%.

As to `CNC(=O)c1ccc(Nc2ncc(C(F)(F)F)c(NCc3nccnc3N(C)S(C)(=O)=O)n2)cc1` [DEFACTINIB], the % of control in assay [4] was found to be 0%; in assay [5], 99.8%; in assay [6] it was 9%; in [7], 4.8%.

On to `CCOc1cn(-c2ccc(F)cc2C)nc1C(=O)Nc1ccc(Oc2ccnc3cc(OC)c(OC)cc23)c(F)c1`, for which the % of control in [8] and in assay [9] was below 10% each time.

Turning to `C[C@H](c1ccnc(Nc2nc3ccc(-c4cc(N(C)C)ncn4)cc3[nH]2)c1)N1CCN(C(=O)CC(F)(F)F)CC1` [BAY-985], the values for the % of control in assay [10] and in assay [11] were 31% and 41%, respectively.

Turning to `CC[C@@H]1C(=O)N(C)c2cnc(Nc3ccc(C(=O)NC4CCN(C)CC4)cc3OC)nc2N1C1CCCC1`, the % of control in [12] and in assay [13] was 89% in each case.
